A short description of test [1]: Trypanosoma cruzi growth suppression in host cells – NIH3T3 host cells, beta-gal luminescence, confirmation (AID 2044).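 Note: intracellular parasites grown in NIH/3T3 mouse fibroblasts as host cells; luminescent beta-galactosidase reporter signal from transgenic T. cruzi replicating inside host cells; inhibitors lower the luminescence signal.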 The test is classed as functional, cell-based.
The nature of test [2]: NIH3T3 cell viability loss – ATP luminescence, mouse fibroblasts, counter-screen, dose response (AID 2010).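 Note: cells exposed to compound for about 90 hours before reading.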 Format: functional, cell-based. The settings on record: NIH3T3. A general note: The purpose of a counterscreen is to sort out artefacts and off-target activity.
In test [3] the target is Heat shock protein HSP 90-alpha (Homo sapiens, UniProt P07900). The test is described as follows: Luminescence-based dose response biochemical high throughput screening assay for inhibitors of the Heat Shock Protein 90 (HSP90). [Related pubchem assays: 1831 (Summary AID.), 1846 (Confirmation screen.), 1789 (Primary screen.)].
Test [4] concerns the target T1, Microphthalmia-associated transcription factor (Homo sapiens, UniProt O75030).
T1 sequence (O75030 whole entry): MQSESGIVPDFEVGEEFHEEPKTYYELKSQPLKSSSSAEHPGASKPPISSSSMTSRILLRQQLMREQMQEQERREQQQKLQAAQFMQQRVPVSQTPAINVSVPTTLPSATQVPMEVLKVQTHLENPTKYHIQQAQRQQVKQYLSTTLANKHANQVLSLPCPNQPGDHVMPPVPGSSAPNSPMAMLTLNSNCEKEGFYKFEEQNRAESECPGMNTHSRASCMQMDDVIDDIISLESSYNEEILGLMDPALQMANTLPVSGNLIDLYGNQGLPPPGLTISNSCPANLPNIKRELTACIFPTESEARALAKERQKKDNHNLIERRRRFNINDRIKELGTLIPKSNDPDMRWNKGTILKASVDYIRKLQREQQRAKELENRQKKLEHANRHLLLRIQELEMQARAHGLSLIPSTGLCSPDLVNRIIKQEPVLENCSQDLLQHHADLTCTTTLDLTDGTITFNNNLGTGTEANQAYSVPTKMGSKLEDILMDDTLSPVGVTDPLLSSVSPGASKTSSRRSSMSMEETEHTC
The test is described as follows: reducers of TRPM1 reporter luminescence, concentration series – cell-based, SK-MEL-5, cherry-picked, set 3, MITF inhibitor project, dose response (AID 493073).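 Note: SK-MEL-5 melanoma cells with luciferase driven by the MITF target TRPM1 promoter.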 Format: functional.

Test [5] concerns the target T2, Apoptotic protease-activating factor 1 (Homo sapiens, UniProt O14727).
T2 sequence (O14727 whole entry): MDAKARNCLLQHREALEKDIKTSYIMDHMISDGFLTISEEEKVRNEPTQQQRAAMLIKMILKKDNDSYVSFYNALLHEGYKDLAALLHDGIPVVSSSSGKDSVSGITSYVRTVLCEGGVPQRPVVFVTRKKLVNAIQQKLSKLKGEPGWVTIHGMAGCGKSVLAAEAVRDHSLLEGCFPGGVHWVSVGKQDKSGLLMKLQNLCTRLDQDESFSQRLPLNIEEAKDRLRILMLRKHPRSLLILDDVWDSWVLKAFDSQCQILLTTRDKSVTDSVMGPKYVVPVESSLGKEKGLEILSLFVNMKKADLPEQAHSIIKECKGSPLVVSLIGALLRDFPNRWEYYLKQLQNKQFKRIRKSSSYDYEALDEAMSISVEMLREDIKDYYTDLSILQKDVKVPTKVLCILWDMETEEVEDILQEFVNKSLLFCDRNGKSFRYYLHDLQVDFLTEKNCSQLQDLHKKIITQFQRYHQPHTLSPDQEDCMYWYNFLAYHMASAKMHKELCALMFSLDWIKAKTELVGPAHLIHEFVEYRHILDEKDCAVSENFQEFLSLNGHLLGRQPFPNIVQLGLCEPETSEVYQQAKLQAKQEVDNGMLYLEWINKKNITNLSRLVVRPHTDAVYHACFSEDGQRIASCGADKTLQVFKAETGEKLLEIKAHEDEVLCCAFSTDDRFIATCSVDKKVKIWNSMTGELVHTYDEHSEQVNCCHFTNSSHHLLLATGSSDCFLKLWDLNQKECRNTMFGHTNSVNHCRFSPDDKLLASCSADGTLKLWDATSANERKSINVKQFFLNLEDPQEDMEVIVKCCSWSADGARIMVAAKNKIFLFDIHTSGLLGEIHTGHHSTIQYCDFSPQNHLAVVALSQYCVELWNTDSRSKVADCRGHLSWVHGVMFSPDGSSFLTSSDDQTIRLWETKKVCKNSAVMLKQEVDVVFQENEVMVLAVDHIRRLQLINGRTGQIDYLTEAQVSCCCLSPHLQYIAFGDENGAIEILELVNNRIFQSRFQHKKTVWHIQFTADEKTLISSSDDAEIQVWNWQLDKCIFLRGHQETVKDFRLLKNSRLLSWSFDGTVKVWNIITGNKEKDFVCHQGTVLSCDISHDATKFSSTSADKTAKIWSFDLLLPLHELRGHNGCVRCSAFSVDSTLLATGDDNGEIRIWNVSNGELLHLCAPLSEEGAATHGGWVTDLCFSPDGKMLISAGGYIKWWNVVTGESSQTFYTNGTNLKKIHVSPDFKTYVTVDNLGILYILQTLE
The test is classed as functional.

A short description of test [6]: inhibitors of TRPM1-promoter reporter in SK-MEL-5 – cell-based, luciferase, dry powder, set 9, MITF inhibitor project, dose response (AID 651588). The test is classed as functional.
A short description of test [7]: cytotoxicity in MITF-independent A375 cells – cell-based, CellTiter-Glo luminescence, dry powder, set 4, counter-screen for MITF inhibitor project, dose response (AID 624364).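 Note: A375 melanoma cells are MITF independent so this is a counter screen.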 The test is classed as functional. The settings on record: A-375. A general note: Cellular ATP, detected with luciferase, serves as a proxy for viable cell number.
A short description of test [8]: viability loss in MITF-independent A375 cells – cell-based, CellTiter-Glo luminescence, dry powder, set 7, counter-screen for MITF inhibitor project, dose response (AID 624490). The test is classed as functional. The note with it: A-375.
A short description of test [9]: MITF Orthogonal Assay: MALME3 CTG Assay Measured in Cell-Based System Using Plate Reader - 2084-04_Inhibitor_Dose_DryPowder_Activity_Set6. Format: functional. The note with it: MALME-3.
Test [10] is described as follows: growth inhibition of SK-MEL-5 melanoma cells – cell-based, CellTiter-Glo luminescence, dry powder, set 8, orthogonal assay for MITF inhibitor project, dose response (AID 651586). The test is classed as functional.
Test [11] in a line: growth inhibition of MALME3 cells – cell-based, CellTiter-Glo luminescence, dry powder, set 5, orthogonal assay for MITF inhibitor project, dose response (AID 651584). The note with it: MALME-3. Format: functional.
The nature of test [12]: cytotoxicity in melanoma parental cells – cell-based, CellTiter-Glo, dry powder, set 6, MITF inhibitor project, dose response (AID 624429). Format: functional. The settings on record: SK-MEL-5.
Test [13] in a line: MITF Orthogonal Assay: SK-MEL-5 CTG Assay Measured in Cell-Based System Using Plate Reader - 2084-02_Inhibitor_Dose_DryPowder_Activity_Set5. Format: functional.
Test [14] is described as follows: viability loss in MITF-independent A375 cells – cell-based, CellTiter-Glo luminescence, dry powder, set 6, counter-screen for MITF inhibitor project, dose response (AID 624488). Format: functional. The note with it: A-375.
Test [15] can be described thus: cytotoxicity in MITF-independent A375 cells – cell-based, CellTiter-Glo luminescence, dry powder, set 9, counter-screen for MITF modulator project, dose response (AID 651591). Format: functional. The settings on record: A-375.
Test [16] is described as follows: MITF Measured in Cell-Based System Using Plate Reader - 2084-01_Inhibitor_Dose_DryPowder_Activity_Set6. Format: functional.
A short description of test [17]: viability loss in MITF-independent A375 cells – cell-based, CellTiter-Glo luminescence, dry powder, set 2, counter-screen for MITF inhibitor project, dose response (AID 624489).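 Note: actives are compounds lowering A375 viability meaning general cytotoxicity.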 The test is classed as functional. The note with it: A-375.
The nature of test [18]: MITF Measured in Cell-Based System Using Plate Reader - 2084-01_Inhibitor_Dose_DryPowder_Activity_Set7. Format: functional.
The target of test [19] is T3, Calpain-2 catalytic subunit (Sus scrofa, UniProt P43367).
T3 sequence (P43367 whole entry): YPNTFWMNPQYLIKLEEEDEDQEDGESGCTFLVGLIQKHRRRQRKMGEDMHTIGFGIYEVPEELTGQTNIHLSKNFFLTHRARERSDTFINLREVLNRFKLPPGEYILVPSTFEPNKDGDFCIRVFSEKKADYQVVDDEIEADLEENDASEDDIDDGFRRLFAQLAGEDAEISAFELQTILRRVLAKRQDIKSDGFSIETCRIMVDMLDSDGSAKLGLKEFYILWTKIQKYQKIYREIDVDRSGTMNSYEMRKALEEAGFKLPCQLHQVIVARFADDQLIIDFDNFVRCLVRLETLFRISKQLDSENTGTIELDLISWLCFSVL
The test is described as follows: m-calpain protease blockers, concentration series – biochemical, fluorogenic peptide substrate, dose response (AID 1420). Format: functional.

A short description of test [20]: viability inhibitors of stage V gametocytes – luminescence, dose response (AID 1117278).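 Note: gametocytes exposed to compound for 24 hours.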 Format: functional, cell-based.
A short description of test [21]: viability loss in human Jurkat cells – cell-based, luminescence, cytotoxicity control for P. falciparum gametocyte viability project, dose response (AID 1117277).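 Note: potency reflects loss of cellular ATP meaning fewer viable cells.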 The test is classed as functional.

Activity calls are given as the source filed them.

For orientation: EC50 means the concentration needed to bring the measured effect to its halfway point. The term IC50 denotes the point on the concentration scale where inhibition reaches its midpoint. With `CC(=O)Nc1ccc(OS(=O)(=O)c2ccc([N+](=O)[O-])cc2)cc1`, the figures for the EC50 in test [1] and in [2] were 1.56 µM (active) and > 60 µM (not active), respectively. Besides, the IC50 in test [3] is 3.75 µM (active).

In general, AC50 refers to the midpoint of the concentration-response curve, whichever way the signal moves. In the case of `CCN1CCN(C2=C(NS(=O)(=O)c3ccc(Br)cc3)C(=O)c3ccccc3C2=O)CC1`, the AC50 was 5.7 µM (active) in test [4]; 17.3 µM (active) in [6]; > 70 µM (inactive) in test [7]; > 70 µM (inactive) in test [8]; 20.9 µM (active) in test [9]; 48.4 µM (active) in test [10]. Besides, the half-maximal activity concentration (AC50) was 20.9 µM (active) in [11]; 46.2 µM (active) in [12]; 34.3 µM (active) in test [13]; 55.1 µM (active) in [14]; > 70 µM (inactive) in test [15]; 8.92 µM (active) in test [16]. Also, the AC50 in [17] was > 70 µM (inactive); in test [18], 4.5 µM (active). Also, the half-inhibitory concentration (IC50) in test [5] was 24.3 µM (active).

As for `CCc1ccc2nc(NC(=O)Cn3cnc4ccccc4c3=O)sc2c1`, the figures for the IC50 in test [19], in test [20] and in [21] were 11.7 µM (not active), > 109 µM (inactive) and > 83.3 µM (inactive), respectively.
